Several values for one entry are separate records, joined by “and”; a condition that tells them apart may be missing. Equal values may be shown once.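 Results reflect a 48-hour exposure of cells in 96-well plates to compound at five concentrations. GI50 marks 50% less growth. TGI is the concentration that stops growth completely.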
Columns and labels:
Assay in all cases: inhibition of tumour cell growth, NCI panel, 48 h
UACC-257 melanoma = test system: UACC-257 melanoma
NCI-H23 lung = test system: NCI-H23 lung
IGROV1 ovarian = test system: IGROV1 ovarian
CAKI-1 renal = test system: CAKI-1 renal
T-47D breast = test system: T-47D breast
OVCAR-5 ovarian = test system: OVCAR-5 ovarian
HS 578T breast = test system: HS 578T breast
SR leukemia = test system: SR leukemia
MDA-MB-231 breast = test system: MDA-MB-231 breast
UO-31 renal = test system: UO-31 renal

Row | SMILES | GI50 (UACC-257 melanoma) | TGI (UACC-257 melanoma) | GI50 (NCI-H23 lung) | TGI (NCI-H23 lung) | GI50 (IGROV1 ovarian) | TGI (IGROV1 ovarian) | GI50 (CAKI-1 renal) | TGI (CAKI-1 renal) | GI50 (T-47D breast) | TGI (T-47D breast) | GI50 (OVCAR-5 ovarian) | TGI (OVCAR-5 ovarian) | GI50 (HS 578T breast) | TGI (HS 578T breast) | GI50 (SR leukemia) | TGI (SR leukemia) | GI50 (MDA-MB-231 breast) | TGI (MDA-MB-231 breast) | GI50 (UO-31 renal) | TGI (UO-31 renal)
1 | FC(F)(F)c1[nH]ncc1-c1nc2c(N3CCCCC3)cc3[nH]ncc3c2c2c1CCCC2 | 1.09 µM | 3.58 µM | 0.791 µM | 2.99 µM | 0.556 µM | 3.66 µM | 0.711 µM | 3.06 µM | 0.756 µM | > 13.7 µM | 1.04 µM | 3.61 µM | 0.603 µM | 2 µM | 0.235 µM | > 50 µM | 0.806 µM | 3.08 µM | 0.873 µM | 3.01 µM
2 | S=c1nc[nH]c2nc[nH]c12 | > 100 µM and 43.7 µM | > 750 µM | 3.11 µM and 7.97 µM | > 100 µM and 271 µM and > 750 µM | 23.3 µM | > 100 µM and 695 µM and > 750 µM | – | > 100 µM and 436 µM and > 750 µM | 0.812 µM and 5.81 µM | > 627 µM | 5.75 µM and > 32.3 µM | > 100 µM and 651 µM and > 750 µM | 9.62 µM and 30.8 µM | > 100 µM and 561 µM and > 612 µM | 0.43 µM | 72.7 µM and 239 µM | – | > 100 µM and 694 µM and > 750 µM | 4.1 µM and 5.55 µM | > 100 µM and 619 µM
3 | COc1cc(/C=C2\CCCC3C2=Nc2ccccc2NC3c2cc(OC)c(OC)c(OC)c2)cc(OC)c1OC (stereo not drawn) | 1.3 µM | 6.77 µM | 2.15 µM | 13.8 µM | 4.1 µM | 18.5 µM | 3.31 µM | > 100 µM | 3.75 µM | 52.7 µM | 3.68 µM | 11.9 µM | 4.75 µM | > 100 µM | 0.723 µM | 3.14 µM | 2.9 µM | 25 µM | 1.66 µM | 4.48 µM
4 | CC(C)[C@](O)(C(=O)OCC1=CC[N+]2([O-])CC[C@@H](O)[C@@H]12)[C@H](C)O (stereo partly drawn) | – | > 10000 µM | – | > 6000 µM | – | > 10000 µM | – | > 9520 µM | – | > 10000 µM | – | > 10000 µM | – | > 10000 µM | – | > 10000 µM | – | > 10000 µM | – | > 10000 µM
5 | Clc1nc(Cl)c2ncn(C/C=C/Cn3cnc4c(Cl)nc(Cl)nc43)c2n1 | 11 µM | 27.8 µM | 18.7 µM | 38 µM | 11.8 µM | 25.7 µM | 13.9 µM | 28.1 µM | 11.2 µM | 32 µM | 19.5 µM | 35.1 µM | 14.6 µM | 35.1 µM | 14.9 µM | 32.2 µM | 21.2 µM | 38 µM | 17.9 µM | 34.5 µM
6 | COc1ccc(-c2ccc3ncc4c(c3c2)n(-c2ccc(N3CCNCC3)c(C(F)(F)F)c2)c(=O)n4C)cn1 | 0.0169 µM and 0.021 µM | 0.11 µM and 0.118 µM | < 0.0131 µM and 0.0156 µM | 0.424 µM and 0.439 µM | < 0.01 µM and 0.0016 µM | 0.0332 µM and 0.0162 µM | 0.0179 µM and 0.0119 µM | 0.884 µM and 0.118 µM | < 0.01 µM and 0.00189 µM | < 0.01 µM and 0.021 µM | < 0.0115 µM and 0.00752 µM | – | < 0.01 µM and 0.00197 µM | 0.0181 µM and 0.013 µM | 0.02 µM and 0.00681 µM | 0.266 µM and 0.365 µM | < 0.01 µM and 0.00601 µM | 0.823 µM and 0.446 µM | < 0.01 µM and 0.00417 µM | 0.196 µM and 0.0269 µM
7 | OC(COc1cccc2ccccc12)CN1CCN(c2ccc(Cl)cc2)CC1 (stereo not drawn) | 42.3 µM | > 100 µM | 29.4 µM | > 100 µM | 14.6 µM | 40 µM | 5.8 µM | 31.4 µM | 81.3 µM | > 100 µM | > 100 µM | > 100 µM | 23.4 µM | > 100 µM | > 100 µM | > 100 µM | 19.5 µM | 69 µM | 15.5 µM | 36.1 µM
8 | COc1cc2cn3c4ccc(O)cc4nc(N)c3c2cc1OC | 1.39 µM | 6.94 µM | 0.968 µM | 4.88 µM | 0.706 µM | 15.1 µM | 0.299 µM | 3.22 µM | 0.435 µM | 16.4 µM | 2.6 µM | 14.1 µM | 0.626 µM | 22.2 µM | 0.0119 µM | 1.39 µM | 2 µM | 15.6 µM | 0.235 µM | 2.48 µM
9 | COc1ccc2[nH]c(-c3ccccc3)c(C=C(C#N)C#N)c2c1 | 30 µM | > 100 µM | 4.08 µM | > 100 µM | 8.35 µM | > 100 µM | 4.13 µM | > 100 µM | 2.29 µM | 9.14 µM | 44.2 µM | > 100 µM | 2.35 µM | 25.4 µM | 0.865 µM | 3.29 µM | 3.8 µM | > 100 µM | 6.43 µM | > 100 µM
10 | CCOC(=O)/C(=C/c1ccccc1)C(=O)c1ccccc1 | 2.52 µM | 10.1 µM | 3.75 µM | 16.5 µM | 2.86 µM | 8.05 µM | 3.04 µM | 10.4 µM | 6.17 µM | 32.5 µM | 4.05 µM | 16.9 µM | 3.03 µM | 18.8 µM | 3.43 µM | 18 µM | 3.06 µM | 12 µM | 1.76 µM | 3.55 µM
11 | O=C(Nc1ccc(Cl)cc1F)c1cc(F)ccc1O | 0.853 µM | 7.2 µM | 0.553 µM | 3.29 µM | 0.597 µM | 17.2 µM | 0.588 µM | 4.54 µM | 0.904 µM | > 23.5 µM | 3.26 µM | 23 µM | 0.718 µM | 5.3 µM | 0.752 µM | > 100 µM | 0.761 µM | 3.81 µM | 0.314 µM | 3.38 µM
12 | [C-]#[O+].[C-]#[O+].[Ir].[O-]c1ccc2ccccc2c1N=Nc1ccccc1 | – | 14.4 µM | – | 31.7 µM | – | 37.1 µM | – | 22.7 µM | 11.9 µM | 33.5 µM | – | 38.3 µM | – | > 100 µM | – | > 56.4 µM | – | 40.7 µM | – | 24.4 µM
13 | O=C1c2ccc3c4c(ccc(c24)C(=O)N1CCCNCc1ccccc1)C(=O)N(CCCNCc1ccccc1)C3=O | 0.199 µM | 0.386 µM | 0.18 µM | 0.42 µM | 0.11 µM | 0.405 µM | 0.21 µM | 0.588 µM | 0.192 µM | 0.429 µM | 0.233 µM | 0.648 µM | 0.531 µM | 3.24 µM | 0.0756 µM | 0.505 µM | 0.238 µM | 0.917 µM | 0.148 µM | 0.364 µM
14 | O=[N+]([O-])c1cccc(/C=C/c2ccccn2)c1 | > 100 µM | > 100 µM | 30 µM | > 100 µM | 28 µM | > 100 µM | 34.5 µM | > 100 µM | 1.82 µM | > 100 µM | 49.7 µM | > 100 µM | 32.7 µM | > 100 µM | 51.6 µM | > 100 µM | 23 µM | > 100 µM | 23.3 µM | > 100 µM
15 | COc1cc([N+](=O)[O-])c(S(=O)(=O)O)cc1N | – | > 100 µM | – | > 100 µM | – | > 100 µM | – | > 100 µM | – | > 100 µM | – | > 100 µM | – | > 100 µM | – | > 100 µM | – | > 100 µM | – | > 100 µM
16 | O=C(C[C@@]1(O)C(=O)Nc2c(Cl)ccc(Cl)c21)c1ccc(C2CC2)cc1 | 12.4 µM | 41.1 µM | 0.634 µM | 19.3 µM | 0.446 µM | 13.6 µM | 0.214 µM | 17.2 µM | 0.454 µM | 32.5 µM | 1.17 µM | 17.5 µM | 0.305 µM | 10 µM | 0.0527 µM | 15.4 µM | 0.798 µM | 15.2 µM | 0.585 µM | 18.5 µM
17 | Cc1cc(O)c(C2=NN(c3ccc(S(N)(=O)=O)cc3)C(c3ccccc3O)C2)cc1Cl (stereo not drawn) | 3.45 µM | 8.74 µM | 2 µM | 4.38 µM | 1.07 µM | 5.66 µM | 1.67 µM | 4.12 µM | 2.61 µM | 11.3 µM | 1.7 µM | 3.61 µM | 2.95 µM | 10.5 µM | 2.22 µM | 26.7 µM | 1.91 µM | 5.11 µM | 0.181 µM | 5.65 µM
18 | CCN1/C(=C/C=C/C=C/c2sc3ccccc3[n+]2CC)Sc2ccccc21 | 0.475 µM | 2.94 µM | 0.164 µM | 2.33 µM | 0.503 µM | 2.14 µM | 0.376 µM | 2.29 µM | 0.101 µM | 0.669 µM | 0.639 µM | 6.05 µM | 0.272 µM | 0.987 µM | 0.0304 µM | 1.02 µM | 0.302 µM | 1.48 µM | 1.66 µM | 4.4 µM
19 | CCN1CCC2(CC1)NC(=O)c1c(c3ccc(Cl)c(Cl)c3n1C)C2C#N (stereo not drawn) | 1.84 µM | 3.96 µM | 3.71 µM | 16 µM | 3.11 µM | 8.97 µM | 2.25 µM | 8.23 µM | 3.09 µM | 13.7 µM | 1.98 µM | 5.79 µM | 1.81 µM | 5.57 µM | 1.76 µM | 5.69 µM | 1.97 µM | 4.43 µM | 1.84 µM | 5.03 µM
